Results from patent US20230277491A1, “PHARMACEUTICAL COMBINATION COMPRISING GLYCOLIC ACID AND L-ALANINE” (priority 2020, published 2023).

Columns and labels:
[1] = test system: cortical neurons; assay: Calcium imaging on primary cortical neurons (SOCE, glutamate-triggered action potential); assay type: cell-based, mouse; settings: FIG. 15
Procedure: GA enhances SOCE and calcium influx during glutamate-triggered action potentials. Fluorescent microscopy images in a show the effect of calcium, glutamate and ionomycin on intracellular calcium in Fluo-4 AM charged cortical neurons at different time points.
Primary cortical neuronal cell cultures were prepared from E15.5 embryos. Briefly, brain cortex from E15.5 pregnant wild type C57Bl/6J or PARK-7^−/− mice were dissected and placed in cold HBSS without Ca2+ and Mg2+(Sigma Aldrich H6648, Germany, EU). Once freed from all other cerebral structures, cortex were placed in an empty petri dish, sliced with the help of a scalpel and trypsinized using a 1:1 mixture of Trypsin (Gibco 25200-056):HBSS at 37° C. for 7 min. The samples were then centrifuged for 4 min. at 800 rpm and the supernatant was replaced with plating medium (89% Neurobasal A, 8.9% FBS, 0.9% L-glutamine, 0.9% N2 supplement and 0.4% P/S). […]
Variations in the Fluo-4 AM fluorescence during Ca^2+ and/or glutamate addition were analyzed using FIJI Image Analysis Freeware. The ROIs were determined using the standard deviation function for the stack of images before and after the addition of 1.8 mM CaCl2 (for changes in intracellular Ca^2+) or before and after the addition of glutamate. […] Once all ROIs were identified and selected, the MFI of each ROI for each time-point was measured with the measure function of the program to generate a matrix with the raw MFI values for each ROI for each time point. […] To determine the effect of GA and DL on Ca^2+ influx after CaCl2 addition and after glutamate addition, all ROIs where normalized using a max-min normalization as previously described: ([Ca^2+]Ca—[Ca^2+]t0/([Ca^2+]ionomycine-[Ca^2+]t0) Once the new matrix with the normalized values was generated, we determined the area under the curve (AUC) in excel using the formula: (Y1+Y2)/2*(X2−X1). The AUC was then obtained as the sum of all the generated values.

[2] = test system: HeLa cells; assay: Intracellular calcium, Fluo4-AM loaded HeLa cells, fluorescent plate reader; assay type: cell-based; settings: FIG. 12
Source text: HeLa cells were loaded with Fluo4-AM and fluorescence was monitored with the help of a fluorescent plate reader. Values are normalized to the initial fluorescent value.

O=C(O)CO [GA, 2-hydroxyethanoic acid]
intracellular calcium during the glutamate-triggered action potential ([1]; 2.5 mM GA): higher increases in intracellular calcium during the action potential | storage operated calcium entry (SOCE) ([1]; 2.5 mM GA, after addition of calcium): increased storage operated calcium entry (SOCE) | calcium transients [1]: bigger calcium transients | intracellular calcium (Fluo4-AM fluorescence normalized to initial value) [2]: reduce intracellular calcium
